As a reminder, the pKi is the negative decadic logarithm of the Ki, by convention in mol/L. Higher therefore signals a small Ki. A word on the pIC50: it is the IC50 on a negative log10 scale, so that one unit is a factor of ten.

Molecules are shown by their SMILES. pIC50, pKi: −log10 of the molar value. Where only a bound is given, the exact number is not on record here.

Assay [1] addresses Apoptosis regulator Bcl-2 (Homo sapiens, UniProt P10415). The assay can be described thus: Displacement of NLWAAQRYGRELRRMSD-K(FITC)-FVD from Bcl-2 (unknown origin) by fluorescence polarization assay. In general terms: Fluorescence polarisation rises when a labelled molecule tumbles more slowly, as on binding a larger partner.
Another assay deals with T1, DNA topoisomerase 2 (Saccharomyces cerevisiae S288c, UniProt P06786).
T1 sequence (P06786 whole entry): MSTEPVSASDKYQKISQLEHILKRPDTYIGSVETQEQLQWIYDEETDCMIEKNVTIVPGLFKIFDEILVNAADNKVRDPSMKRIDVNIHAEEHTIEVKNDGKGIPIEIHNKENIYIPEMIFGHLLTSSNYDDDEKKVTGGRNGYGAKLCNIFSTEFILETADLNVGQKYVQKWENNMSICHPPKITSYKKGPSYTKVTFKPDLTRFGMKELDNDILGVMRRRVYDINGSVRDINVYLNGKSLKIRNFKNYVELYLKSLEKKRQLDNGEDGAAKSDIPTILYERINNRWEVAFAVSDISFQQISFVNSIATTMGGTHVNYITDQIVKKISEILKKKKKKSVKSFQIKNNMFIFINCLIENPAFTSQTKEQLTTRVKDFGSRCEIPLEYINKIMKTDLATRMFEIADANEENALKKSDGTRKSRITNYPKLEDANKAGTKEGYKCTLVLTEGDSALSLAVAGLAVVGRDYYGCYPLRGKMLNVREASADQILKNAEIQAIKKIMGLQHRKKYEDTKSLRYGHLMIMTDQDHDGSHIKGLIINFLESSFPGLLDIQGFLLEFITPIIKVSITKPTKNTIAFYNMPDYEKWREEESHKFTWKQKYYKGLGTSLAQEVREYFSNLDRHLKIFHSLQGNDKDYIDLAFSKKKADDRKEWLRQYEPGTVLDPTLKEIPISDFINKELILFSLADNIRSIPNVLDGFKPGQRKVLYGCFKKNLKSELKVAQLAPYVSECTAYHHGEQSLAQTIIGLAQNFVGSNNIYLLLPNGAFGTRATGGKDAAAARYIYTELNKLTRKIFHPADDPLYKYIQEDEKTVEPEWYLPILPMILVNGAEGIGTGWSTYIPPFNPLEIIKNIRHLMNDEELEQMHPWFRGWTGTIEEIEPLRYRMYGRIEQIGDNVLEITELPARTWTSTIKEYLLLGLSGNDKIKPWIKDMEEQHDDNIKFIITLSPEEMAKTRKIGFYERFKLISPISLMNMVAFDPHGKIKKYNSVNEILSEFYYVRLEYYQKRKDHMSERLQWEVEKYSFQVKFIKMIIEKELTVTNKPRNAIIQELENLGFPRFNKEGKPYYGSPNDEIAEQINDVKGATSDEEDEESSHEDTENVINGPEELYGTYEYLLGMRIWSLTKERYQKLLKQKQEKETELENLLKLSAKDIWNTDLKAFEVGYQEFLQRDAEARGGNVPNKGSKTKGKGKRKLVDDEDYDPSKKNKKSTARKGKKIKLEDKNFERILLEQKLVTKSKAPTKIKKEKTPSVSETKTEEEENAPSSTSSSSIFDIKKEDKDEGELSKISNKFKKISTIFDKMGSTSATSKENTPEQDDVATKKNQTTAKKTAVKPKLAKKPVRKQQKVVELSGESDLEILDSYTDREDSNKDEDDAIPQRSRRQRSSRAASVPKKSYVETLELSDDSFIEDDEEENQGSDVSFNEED
In words: Inhibition of Saccharomyces cerevisiae DNA topoisomerase 2.

Assay [2] is described as follows: Binding affinity to Homo sapiens (human) G-quadruplex DNA assessed as formation of G4TER1 mutant complex after 2 min by PCR stop assay.
Assay [3] in a line: Binding affinity to Homo sapiens (human) G-quadruplex DNA assessed as formation of VNTR6-1 mutant complex after 2 min by PCR stop assay.
Assay [4] in a line: Binding affinity to Homo sapiens (human) G-quadruplex DNA assessed as formation of G4TER2 mutant complex after 2 min by PCR stop assay.
A further assay has as its target T2, DNA topoisomerase 1 (Homo sapiens, UniProt P11387).
T2 sequence (P11387 whole entry): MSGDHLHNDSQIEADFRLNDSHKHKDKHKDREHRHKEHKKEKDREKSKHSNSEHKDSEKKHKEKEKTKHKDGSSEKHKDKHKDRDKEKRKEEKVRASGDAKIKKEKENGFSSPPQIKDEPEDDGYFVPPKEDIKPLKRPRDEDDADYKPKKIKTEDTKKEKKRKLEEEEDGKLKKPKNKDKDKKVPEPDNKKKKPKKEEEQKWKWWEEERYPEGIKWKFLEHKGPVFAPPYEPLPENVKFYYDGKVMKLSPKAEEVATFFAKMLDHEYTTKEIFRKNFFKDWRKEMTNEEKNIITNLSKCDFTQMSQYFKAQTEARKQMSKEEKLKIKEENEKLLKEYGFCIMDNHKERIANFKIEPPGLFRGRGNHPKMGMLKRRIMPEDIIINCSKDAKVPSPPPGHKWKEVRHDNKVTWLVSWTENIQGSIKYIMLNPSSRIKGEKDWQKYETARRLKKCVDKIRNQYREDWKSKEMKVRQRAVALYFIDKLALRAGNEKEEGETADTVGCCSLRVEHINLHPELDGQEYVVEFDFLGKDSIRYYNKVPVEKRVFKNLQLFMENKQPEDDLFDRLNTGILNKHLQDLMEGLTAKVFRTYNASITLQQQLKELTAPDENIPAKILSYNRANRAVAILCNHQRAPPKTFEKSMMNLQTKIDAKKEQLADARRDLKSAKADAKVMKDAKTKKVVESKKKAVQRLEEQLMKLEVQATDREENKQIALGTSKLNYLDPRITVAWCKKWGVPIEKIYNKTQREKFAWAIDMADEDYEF
In words: Inhibition of DNA topoisomerase 1 (unknown origin).

Apoptosis regulator Bcl-2, sequence (P10415 whole entry): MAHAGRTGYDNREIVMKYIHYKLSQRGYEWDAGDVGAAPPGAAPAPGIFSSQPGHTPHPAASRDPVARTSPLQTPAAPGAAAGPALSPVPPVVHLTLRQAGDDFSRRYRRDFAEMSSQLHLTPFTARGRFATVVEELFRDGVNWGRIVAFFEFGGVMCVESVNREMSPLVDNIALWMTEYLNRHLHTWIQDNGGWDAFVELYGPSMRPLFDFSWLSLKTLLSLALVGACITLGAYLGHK

Take `Oc1cc(O)c2c(c1)O[C@H](c1cc(O)c(O)c(O)c1)[C@@H](O)C2` [GALLOCATECHIN]: in assay [1], the negative-log Ki (pKi) is under 4.00.

For `Oc1cc(O)c2c(c1)O[C@H](c1ccc(O)c(O)c1)[C@@H](O)C2` [CATECHIN], in assay [1], the pKi is under 4.00.

Take `O=C(O[C@@H]1Cc2c(O)cc(O)cc2O[C@@H]1c1ccc(O)c(O)c1)c1cc(O)c(O)c(O)c1` [EPICATECHIN GALLATE]: the pKi in assay [1] is 6.40.

In turn, `O=C(O[C@@H]1Cc2c(O)cc(O)cc2O[C@@H]1c1cc(O)c(O)c(O)c1)c1cc(O)c(O)c(O)c1` [EPIGALOCATECHIN GALLATE] showed a negative logarithm of the Ki (pKi) in assay [1] of 6.47. On DNA topoisomerase 2, this compound showed a negative logarithm of the IC50 (pIC50) of 2.52.

Consider `Oc1cc(O)c2c(c1)O[C@H](c1cc(O)c(O)c(O)c1)[C@H](O)C2` [EPIGALLOCATECHIN], for which the negative logarithm of the Ki (pKi) in assay [1] was under 4.00.

In the case of `Cc1oc2nc1-c1nc(co1)-c1nc(co1)-c1nc(co1)-c1nc(co1)-c1nc(co1)C1=NC(CS1)c1nc-2c(C)o1` (centres undefined) [TELOMESTATIN], the results for the pIC50 in assay [2], in assay [3] and in assay [4] were 5.00, 5.05 and 5.00, respectively.

`Oc1cc(O)c2c(c1)O[C@H](c1ccc(O)c(O)c1)[C@H](O)C2` [(-)-EPICATECHIN] showed a pKi in assay [1] of under 4.00.

Take `O=c1c(O)c(-c2cc(O)c(O)c(O)c2)oc2cc(O)cc(O)c12` [MYRICETIN]: the negative-log IC50 (pIC50) against DNA topoisomerase 1 was 4.43.

For the compound `O=c1c(O)cccc2c([C@H]3Oc4cc(O)cc(O)c4C[C@H]3O)cc(O)c(O)c12` [THEAFLAVANIN], in assay [1], the negative-log Ki (pKi) was 6.54.

In the case of `O=C(O[C@@H]1Cc2c(O)cc(O)cc2O[C@H]1c1cc(O)c(O)c(O)c1)c1cc(O)c(O)c(O)c1` [GALLOCATECHIN GALLATE], in assay [1], the pKi is 6.63. The pKi values of the last two compounds are within 0.2 log units of each other.

In assay [1], `O=C(O[C@@H]1Cc2c(O)cc(O)cc2O[C@H]1c1ccc(O)c(O)c1)c1cc(O)c(O)c(O)c1` [CATECHIN GALLATE] gave a negative logarithm of the Ki (pKi) of 6.64.

The values above are taken from ChEMBL document CHEMBL3046684, “Molecular docking study on anticancer activity of plant-derived natural products” (Med Chem Res, 2010).
